In publication PMC11729419, “Thiol-Reactive or Redox-Active: Revising a Repurposing Screen Led to a New Invalidation Pipeline and Identified a True Noncovalent Inhibitor Against Papain-like Protease from SARS-CoV-2” (ACS Pharmacology & Translational Science, 2024):

How the values were obtained:
[1] = molecular target: PLpro-NAB C111S (Severe acute respiratory syndrome coronavirus 2, UniProt P0DTD1, C1674S); assay type: binding, SARS-CoV-2
[2] = molecular target: T1, PLpro-NAB (Severe acute respiratory syndrome coronavirus 2, UniProt P0DTD1); assay type: binding, SARS-CoV-2; conditions: consistent in both DTT and L-Cys buffers
[3] = molecular target: T1, PLpro-NAB; assay: STD-NMR ligand binding and competition; parameters: species or system SARS-CoV-2; conditions: for STD amplification factor AMP: 0.15 mM compound, PLpro/compound 1:100
[4] = molecular target: SARS-CoV-2 PLpro-NAB (Severe acute respiratory syndrome coronavirus 2, UniProt P0DTD1); assay: biochemical; conditions: for HP PLpro-NAB inhibition [%] 20 μM triplicates 1 mM L-cys buffer: hit profiling

CCS(=O)(=O)N1CCC([C@@H](C)n2c(C)c(C(=O)NCc3c(OC)cc(C)[nH]c3=O)c3ccccc32)CC1 [CPI-169]
Tm / stability of PLpro-NAB C111S [1]: increased the Tm | Tm value of PLpro-NAB [2]: concentration-dependent increase in the Tm value | Competitive STD-NMR with GRL-0617 [3]: displacement of CPI-169 from the GRL-0617 binding site | STD amplification factor AMP ([3]; proton H11): 0.74 | STD amplification factor AMP ([3]; proton H13): 1.19 | STD amplification factor AMP ([3]; proton H23): 0.43 | STD amplification factor AMP ([3]; proton H35): 0.89 | Inhibition in L-cysteine buffer versus DTT buffer (dose-response) ([4]; 1 mM L-cysteine vs 1 mM DTT): did not show variations in inhibition potency or thermal stability | Inhibitory activity on retest in 1 mM L-cysteine ([4]; 50% inhibition at 20 μM, 1 mM L-cysteine): retained their inhibitory activity | HC PLpro-NAB inhibition [%] 20 μM triplicates 1 mM DTT buffer ([4]; hit confirmation, 20 μM, 1 mM DTT buffer, average (SD), 20 μM PR619 = 100%, DMSO = 0%, listed as CPI-169 (FhG)): 99.81 (2.18) % | inhibition at 20 µM ([4]; hit confirmation, 20 μM, 1 mM DTT buffer, average (SD), 20 μM PR619 = 100%, DMSO = 0%, read-out: HC PLpro-NAB inhibition [%] 20 μM triplicates 1 mM DTT buffer): 96% | HP PLpro-NAB inhibition [%] 20 μM triplicates 1 mM L-cys buffer ([4]; 20 μM, average (SD), 20 μM PR619 = 100%, listed as CPI-169 (EOS)): 49.41 (2.14) % | HP PLpro-NAB inhibition [%] 20 μM triplicates 1 mM L-cys buffer ([4]; 20 μM, average (SD), 20 μM PR619 = 100%, listed as CPI-169 (FhG)): 70.67 (1.71) %
